The source of these data is patent publication US20090298894A1, “AMINO ACID COMPOUNDS” (Asahi Kasei Pharma Corporation, priority 2008, published 2009).

Each structure is given as a SMILES string. Structures can show the parent of a compound that is named as a salt.

T1 sequence (P21453 whole entry): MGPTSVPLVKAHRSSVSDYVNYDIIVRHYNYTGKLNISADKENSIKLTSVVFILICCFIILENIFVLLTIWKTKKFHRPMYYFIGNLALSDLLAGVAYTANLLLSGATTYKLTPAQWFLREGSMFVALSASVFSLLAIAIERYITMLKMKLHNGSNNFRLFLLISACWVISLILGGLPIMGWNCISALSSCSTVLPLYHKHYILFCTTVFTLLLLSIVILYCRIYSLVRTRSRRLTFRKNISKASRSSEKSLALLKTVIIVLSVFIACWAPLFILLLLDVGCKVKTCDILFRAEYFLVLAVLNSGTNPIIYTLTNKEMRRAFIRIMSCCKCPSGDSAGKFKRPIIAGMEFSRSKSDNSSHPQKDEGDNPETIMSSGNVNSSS

One series has as its target T1, human S1P1 (Homo sapiens, UniProt P21453).
T1 construct: expressed in transfected cells
Kind of series: 35S-GTPγS binding assay using a membrane prepared from CHO cells which stably express S1P1 receptor. Type of series: biochemical. To be noted: CHO cell membrane fraction stably expressing human S1P1, read-out: EC50 (concentration of agonist required to give 50% of its own maximum increase ratio), human S1P1. As for the experimental part:
^35S-GTPγS Binding Assay Using a Membrane Prepared from CHO Cells Which Stably Express S1P1 Receptor
Functional activation of human S1P1 by the compounds was determined based on quantification of ^35S-GTPγS binding to G protein due to the receptor activation, by using a cell membrane fraction prepared from CHO cells in which human S1P1 are stably expressed. As for human S1P1, the above described human S1P1 was used. Membrane proteins as prepared and various concentrations of sphingosine-1-phosphate or the compounds diluted in a solvent such as DMSO were incubated in a solution comprising 20 mM Tris-Cl (pH 7.5), 100 mM NaCl, 10 mM MgCl2, […] (Upstate), 0.1% BSA (fatty acid free, Sigma) and 25 pM ^35S-GTPγS (specific activity 1250 Ci/mmol) in 96 well microtiter plates. Binding was performed by incubating them for 90 minutes at room temperature, and then terminated by harvesting the membrane proteins onto multiscreeen harvest FB plates (Millipore) using Millipore multiscreen separation system. After drying the harvest plates at least for 12 hours, 25 μl of MicroScint-O (Perkin Elmer) was added to each well and radioactivity was measured using a Top Counter.
Having the value measured for the well to which a solvent has been added as a control value, the agonist activity of the compounds was determined by comparing the increase in the well to which a test compound has been added to the control value, and therefore an increase ratio for each concentration of the compounds was obtained. EC50 values were culcurated as defined to be the concentration of agonist required to give 50% of its own maximum increase ratio.
`Cc1cc(-c2nc(-c3cc(C)c4c(c3)CN([C@H]3C[C@H](C(=O)O)C3)C4)no2)ccc1-c1ccccc1C(F)(F)F` [Example 54]: the EC50 is below 10 nM.

For the compound `O=C(O)C1CC(NC2CCc3cc(-c4noc(-c5ccc(-c6ccccc6F)c(Cl)c5)n4)ccc32)C1` (stereo not drawn) [Example 55, 1,3-Trans-3-(5-(5-(2-chloro-2′-fluorobiphenyl-4-yl)-1,2,4-oxadiazol-3-yl)-2,3-dihydro-1H-inden-1-ylamino)cyclobutane carboxylic acid hydrochloric acid salt], the EC50 is below 10 nM.

`Cc1cc(-c2nc(-c3ccc4c(c3)CCC4N[C@H]3C[C@H](C(=O)O)C3)no2)ccc1-c1ccccc1Cl` (some centres unmarked) [Example 58]: the EC50 is below 10 nM. Still for that read-out and setting: as for `Cc1cc(-c2nc(-c3ccc4c(c3)CCC4N[C@H]3C[C@H](C(=O)O)C3)no2)ccc1-c1ccccc1C#N` (some centres unmarked) [Example 59], the figure is below 10 nM; as for `O=C(O)[C@H]1C[C@H](NC2CCc3cc(-c4noc(-c5ccc(-c6ccccc6)c(F)c5)n4)ccc32)C1` (some centres unmarked) [Example 60], below 10 nM. As for `O=C(O)[C@H]1C[C@H](NC2CCc3cc(-c4noc(-c5ccc(-c6ccccc6F)c(F)c5)n4)ccc32)C1` (some centres unmarked) [Example 61], the EC50 is below 10 nM. The same measure, in the same setting: then `O=C(O)[C@H]1C[C@H](NC2CCc3cc(-c4noc(-c5ccc(-c6ccccc6)c(Cl)c5)n4)ccc32)C1` (some centres unmarked) [Example 62], with below 10 nM. As to `N#Cc1ccccc1-c1ccc(-c2nc(-c3ccc4c(c3)CCC4N[C@H]3C[C@H](C(=O)O)C3)no2)cc1Cl` (some centres unmarked) [Example 63], the EC50 is below 10 nM. For `Cc1cc(-c2nc(-c3ccc4c(c3)CCC4N[C@H]3C[C@H](C(=O)O)C3)no2)ccc1-c1cccc(F)c1C#N` (some centres unmarked) [Example 64], the EC50 was below 10 nM. The same measure, in the same setting: then `Cc1cc(-c2nc(-c3ccc4c(c3)CCC4N[C@H]3C[C@H](C(=O)O)C3)no2)ccc1-c1cc(F)ccc1C#N` (some centres unmarked) [Example 65], with below 10 nM; and `Cc1cc(-c2nc(-c3ccc4c(c3)CN([C@H]3C[C@H](C(=O)O)C3)C4)no2)ccc1-c1ccccc1Cl` [Example 66], with below 10 nM; and `O=C(O)[C@H]1C[C@H](N2Cc3ccc(-c4noc(-c5ccc(-c6ccccc6)c(Cl)c5)n4)cc3C2)C1` [Example 67], with below 10 nM. As for `O=C(O)[C@H]1C[C@H](N2Cc3ccc(-c4noc(-c5ccc(-c6ccccc6F)c(Cl)c5)n4)cc3C2)C1` [Example 68], the EC50 is below 10 nM. Turning to `Cc1cc(-c2nc(-c3cc(Cl)c4c(c3)CN([C@H]3C[C@H](C(=O)O)C3)C4)no2)ccc1-c1ccccc1` [Example 77], the EC50 was below 10 nM. The same measure, in the same setting: as for `Cc1cc(-c2nc(-c3ccc4c(c3)CN([C@H]3C[C@H](C(=O)O)C3)C4)no2)ccc1-c1ccsc1` [Example 78], the figure is below 10 nM.

With `Cc1cc(-c2nc(-c3ccc4c(c3)CN([C@H]3C[C@H](C(=O)O)C3)C4)no2)ccc1-c1ccccc1F` [Example 84], the EC50 is below 10 nM. On to `Cc1cc(-c2nc(-c3ccc4c(c3)CN([C@H]3C[C@H](C(=O)O)C3)C4)no2)ccc1-c1ccccc1C(F)(F)F` [Example 85], for which the EC50 was below 10 nM. `Cc1cc(-c2nc(-c3ccc4c(c3)CN([C@H]3C[C@H](C(=O)O)C3)C4)no2)ccc1-c1cscc1C` [Example 88]: the EC50 is below 10 nM. In the case of `Cc1cc(-c2nc(-c3ccc4c(c3)CN([C@H]3C[C@H](C(=O)O)C3)C4)no2)c(F)cc1-c1ccccc1F` [Example 89], the EC50 was below 10 nM. With `Cc1cc(-c2nc(-c3ccc4c(c3)CN([C@H]3C[C@H](C(=O)O)C3)C4)no2)ccc1-c1cccc(F)c1F` [Example 90], the EC50 was below 10 nM.

Consider `Cc1cc(-c2nc(-c3ccc4c(c3)CN([C@H]3C[C@H](C(=O)O)C3)C4)no2)ccc1-c1cccc(C(F)(F)F)c1F` [Example 92], for which the EC50 is below 10 nM. `Cc1cc(-c2nc(-c3ccc4c(c3)CN([C@H]3C[C@H](C(=O)O)C3)C4)no2)c(F)cc1-c1cccc(F)c1F` [Example 93]: the EC50 is below 10 nM. Regarding `Cc1cc(-c2nc(-c3ccc4c(c3)CN([C@H]3C[C@H](C(=O)O)C3)C4)no2)ccc1-c1cccc(F)c1C(F)(F)F` [Example 95], the EC50 was below 10 nM. As for `Cc1cc(-c2nc(-c3ccc4c(c3)CN([C@H]3C[C@H](C(=O)O)C3)C4)no2)ccc1-c1cc(F)cc(F)c1F` [Example 100], the EC50 is below 10 nM.

For `Cc1cc(-c2nc(-c3ccc4c(c3)CN([C@H]3C[C@H](C(=O)O)C3)C4)no2)c(F)cc1-c1cc(F)cc(F)c1F` [Example 102], the EC50 was below 10 nM. As for `Cc1cc(-c2nc(-c3ccc4c(c3)CN([C@H]3C[C@@H](C(=O)O)C3)C4)no2)ccc1-c1ccccc1` [Example 104], the EC50 is below 10 nM.

Turning to `Cc1cc(-c2nc(-c3ccc4c(c3)CN([C@H]3C[C@@H](C(=O)O)C3)C4)no2)c(F)cc1-c1cc(F)cc(F)c1F` [Example 106], the EC50 was below 10 nM.

A further series has as its system peripheral lymphocytes. Kind of series: Evaluation of peripheral blood lymphocyte reduction. Type of series: in vivo. To be noted: po, 6 h, rat, orally administered, six hours after the administration, read-out: ED50 (dosage required to reduce number of lymphocytes by 50%). As for the experimental part:
Evaluation of Peripheral Blood Lymphocyte Reduction
The compound or a solvent is orally administered to a rat. 3, 6, 24, 48 or 72 hours after the administration of the compounds, blood is drawn from the rat tail. Hematological testis carried out for the whole blood sample. Using an automated analyzer (Sysmex 2000Xi), total number of peripheral lymphocytes is obtained. By having at least three animals per group, activity of the compound on the total number of peripheral lymphocytes was evaluated. Lymphocyte reduction caused by the compound administration was evaluated via comparison with an animal group which had received the solvent only. Specifically, average number of the lymphocytes for the solvent administered group was taken as 100%, and from average number of the lymphocytes for the compound administered group, control % value was calculated. Further, in view of the dosage of the compound and the dosage of the compound that is required to reduce number of lymphocytes by 50% six hours after the administration compared to the control % value was calculated as ED50.
For `Cc1cc(-c2nc(-c3ccc4c(c3)CCC4NC3CC(C(=O)O)C3)no2)ccc1-c1cccc(F)c1.Cl` (centres unmarked) [Example 4], the 50% effective dose (ED50) is below 1 mg/kg. For the compound `Cc1cc(-c2nc(-c3ccc4c(c3)CCC4NC3CC(C(=O)O)C3)no2)ccc1-c1cccc(F)c1F.Cl` (centres unmarked) [Example 28], the ED50 is below 1 mg/kg. Still for that read-out and setting: then `Cc1cc(-c2nc(-c3ccc4c(c3)CCC4NC3CC(C(=O)O)C3)no2)ccc1-c1cc(F)ccc1F.Cl` (centres unmarked) [Example 29], with below 1 mg/kg; and `Cc1cc(-c2nc(-c3ccc4c(c3)CCC4NC3CC(C(=O)O)C3)no2)c(F)cc1-c1cccc(F)c1F.Cl` (centres unmarked) [Example 32], with below 1 mg/kg; and `Cc1cc(-c2nc(-c3ccc4c(c3)CCC4NC3CC(C(=O)O)C3)no2)c(F)cc1-c1cccc(C(F)(F)F)c1C(F)(F)F.Cl` (centres unmarked) [Example 48], with below 1 mg/kg.

For the next series, the system named is rat having arthritis caused by an adjuvant. Description: Animal model having arthritis caused by an adjuvant. The series is classed as in vivo. To be noted: female Lewis rat, oral once a day, twenty-one days after the administration. The procedure:
Animal Model Having Arthritis Caused by an Adjuvant
Seven-week old female Lewis rat is used for the evaluation. After measuring the volume of the hind leg of the rat, M. tuberculosis H37 RA (manufactured by Difco, 500 μg/100 μl) which has been suspended in fluid paraffin as an adjuvant, is subcutaneously injected in the sole of rear left foot of the rat to prepare a rat having arthritis caused by an adjuvant. The compounds to be tested are suspended in 1% methyl cellulose solution, and force the animal to be orally administered with the suspension into the stomach by using a sonde, once a day for twenty-one days from the start of the adjuvant injection. Evaluation of arthritis is carried out by measuring volume of the foot of each animal by using a plethysmometer (manufactured by UGO BASILE). By comparing the value for the group administered with the compounds of the present invention with the solvent administered group, effect of the compounds is determined. Specifically, the swelling of the sole of the rear left foot of the solvent administered group is taken as 100%, and in view of the swelling of the animals of the compound administered group, control % values are calculated. […]
With `Cc1cc(-c2nc(-c3ccc4c(c3)CCC4N[C@H]3C[C@H](C(=O)O)C3)no2)ccc1-c1ccccc1.Cl` (stereo partly drawn) [Example 1, 1,3-Trans-3-(5-(5-(2-methylbiphenyl-4-yl)-1,2,4-oxadiazol-3-yl)-2,3-dihydro-1H-inden-1-ylamino)cyclobutanecarboxylic acid hydrochloride salt], the “ED50 (dosage required to reduce the swelling of sole of the rear left foot by 50%)” value is reported as “less than 1 mg/kg”.

System in another series: not given
Test: not given
The conditions noted are these: reported in Non-Patent Document 1; cited from earlier work.
In the case of `CCCCCCCCc1ccc(CCC(N)(CO)CO)cc1` [FTY720], the “side effect after administration” value is recorded as “bradycardia is found after administration”.

System in a further series: not given
Test: not given
The conditions noted are these: rats, intravenous administration, Non-Patent Document 2; cited from earlier work.
Take `CCCCCCCCCCCCC/C=C/[C@@H](O)[C@@H](N)COP(=O)(O)O` [sphingosine 1-phosphate]: the “effect on heart rate” value was “decreases the heart rate”.
